Measurements from US20230183243A1, “HETEROARYL DERIVATIVES AND PHARMACEUTICAL COMPOSITION COMPRISING SAME AS ACTIVE INGREDIENT” (VORONOI INC., priority 2019, published 2023).

Legend:
TTK = target: T1, TTK (Homo sapiens, UniProt P33981); test: TTK enzyme activity, ADP-Glo kinase assay; assay type: biochemical; set-up: purchased SignalChem T20-10G; settings: purified human TTK, ATP 10 μM, 25° C., 2 hours
T1 sequence (P33981 1-857): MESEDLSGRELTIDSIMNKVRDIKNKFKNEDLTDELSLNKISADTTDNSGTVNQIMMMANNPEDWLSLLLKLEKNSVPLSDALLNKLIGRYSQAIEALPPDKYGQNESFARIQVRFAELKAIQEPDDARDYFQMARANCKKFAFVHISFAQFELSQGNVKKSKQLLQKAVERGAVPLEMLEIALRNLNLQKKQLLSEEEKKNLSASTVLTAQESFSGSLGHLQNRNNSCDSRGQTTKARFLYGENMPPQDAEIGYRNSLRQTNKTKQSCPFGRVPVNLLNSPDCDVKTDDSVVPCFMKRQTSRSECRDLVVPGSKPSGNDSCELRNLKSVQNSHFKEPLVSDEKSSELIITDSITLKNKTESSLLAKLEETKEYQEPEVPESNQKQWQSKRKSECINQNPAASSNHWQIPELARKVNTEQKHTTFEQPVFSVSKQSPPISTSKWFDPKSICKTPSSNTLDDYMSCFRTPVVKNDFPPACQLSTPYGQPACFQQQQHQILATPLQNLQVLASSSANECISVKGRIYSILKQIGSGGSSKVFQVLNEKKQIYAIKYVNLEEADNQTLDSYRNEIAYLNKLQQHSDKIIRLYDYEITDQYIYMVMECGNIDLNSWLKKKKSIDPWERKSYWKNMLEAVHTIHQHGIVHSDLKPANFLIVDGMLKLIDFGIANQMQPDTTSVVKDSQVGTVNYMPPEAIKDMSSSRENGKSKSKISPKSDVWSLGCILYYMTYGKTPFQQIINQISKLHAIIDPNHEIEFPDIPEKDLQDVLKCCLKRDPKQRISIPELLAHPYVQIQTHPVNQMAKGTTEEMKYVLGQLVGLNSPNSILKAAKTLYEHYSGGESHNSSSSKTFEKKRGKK
Summary of the method: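 ADP-Glo read-out; percent inhibition at each compound concentration was relative to the solvent-only control. The reactions contained 25 ng enzyme, 0.2 μg substrate and 10 μM ATP in 40 mM Tris-HCl pH 7.4 with 20 mM MgCl2, 0.5 mg/mL BSA and 50 μM DTT, and ran 2 h at 25 °C.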

SHP-77 = test: Inhibition of proliferation of small cell lung cancer cells, CellTiter-Glo; assay type: cell-based; settings: Homo sapiens, SHP77, 120 h; SHP-77, cultured for 5 days
Method: Specifically, the following test was performed to evaluate the inhibitory activity of the compound according to the present invention against the cell proliferation in the SCLC cells.
To check an inhibitory ability of cell growth in one SCLC cell line, a test was performed as follows. Cells were seeded in 180 μL of a culture broth at a density of 2,000 to 3,000 cells/well in a white clear bottom 96-well plate (Corning) according to the growth ability of each cell, and then cultured for 24 hours under conditions of 5% CO2 and 37° C. Thereafter, the compound was prepared by diluting a 10 mM stock solution three-fold with 100% DMSO at a total of 12 concentrations so that a peak concentration of the compound was in a range of 10 mM to 0.05 μM, and the diluted compound was then diluted in each cell culture medium so that a final concentration of the compound was in a range of 100 μM to 0.5 nM. 20 μL of a diluted solution diluted with a medium was added to the cell solution in which cells were seeded in the 96-well plate on the previous day so that a final concentration of the diluted solution was in a range of 10 μM to 0.05 nM. Each of the cells was cultured for 5 days. To check cell viability, a mixture provided in aCellTiter-Glo® Luminescent Cell Viability Assay Kit (Promega) was added to each of the cultured cell media, and cultured for another 10 minutes under a condition of 37° C. Then, a degree of luminescence (fluorescence) was measured. A degree of inhibition of the cell growth according to the treatment concentration of each of the compounds was calculated based on the fluorescence of the solvent control cells which were not treated with the compound. In this case, the concentration of each of the compounds inhibiting 50% of the cell growth was determined to be a GI50 (nM) value, and calculated using Prism (Version 7.01; GraphPad) software.

MDA-MB-231 cells = test: Inhibition of proliferation of triple-negative breast cancer cells, CellTiter-Glo; assay type: cell-based; settings: Homo sapiens, 120 h; MDA-MB-231, cultured for 5 days
Summary of the method: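 MDA-MB-231 cells pre-cultured 24 h (5% CO2, 37 °C), then exposed to compound for 5 days at 12 three-fold dilutions, final 10 μM to 0.05 nM. Viability read by CellTiter-Glo luminescence after 10 min at 37 °C; growth inhibition calculated relative to untreated solvent-control cells.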

SMILES	IC50 (TTK) [nM]	GI50 (SHP-77) [nM]	GI50 (MDA-MB-231 cells) [nM]
COc1cc(-c2cccc(O)c2)ccc1Nc1nc(NC2CCOCC2)c2c(C#N)c[nH]c2n1 [Example 141, 2-((3′-hydroxy-3-methoxy-[1,1′-biphenyl]-4-yl)amino)-4-((tetrahydro-2H-pyran-4-yl)amino)-7H-pyrrolo[2,3-d] pyrimidine-5-carbonitrile]	< 50	< 100	< 100
COc1cc(-c2c(C)noc2C)c(F)cc1Nc1nc(NC2CCCCC2)c2c(C#N)c[nH]c2n1 [Example 123, 4-(cyclohexylamino)-2-((4-(3,5-dimethylisoxazol-4-yl)-5-fluoro-2-methoxyphenyl)amino)-7H-pyrrolo[2,3-d] pyrimidine-5-carbonitrile]	50 to 200	100 to 1000	> 1000
COc1cc(-c2nncn2C)ccc1Nc1nc(NC2CCOCC2)c2c(C#N)c[nH]c2n1 [Example 90, 2-((2-methoxy-4-(4-methy1-4H-1,2,4-triazol-3-yl)phenyl)amino)-4-((tetrahydro-2H-pyran-4-yl)amino)-7H-pyrrolo[2,3-d] pyrimidine-5-carbonitrile]	< 50	< 100	< 100
COc1cc(-c2c(C)noc2C)ccc1Nc1nc(NC2CCOCC2)c2c(C(F)(F)F)c[nH]c2n1 [Example 131, N^2-(4-(3,5-dimethylisoxazol-4-yl)-2-methoxyphenyl)-N^4-(tetrahydro-2H-pyran-4-yl)-5-(trifluoromethyl)-7H-pyrrolo[2,3-d] pyrimidine-2,4-diamine]	50 to 200	< 100	< 100
N#Cc1c[nH]c2nc(Nc3ccc(N4CCCS4(=O)=O)c(F)c3)nc(NC3CCCC3)c12 [Example 173, 4-(cyclopentylamino)-2-((4-(1,1-dioxidoisothiazolidin-2-yl)-3-fluorophenyl)amino)-7H-pyrrolo[2,3-d] pyrimidine-5-carbonitrile]	< 50	< 100	100 to 1000
N#Cc1c[nH]c2nc(Nc3ccc(N4CCCC4=O)c4c3OCCO4)nc(NC3C[C@H]4CC[C@@H]3C4)c12 (stereo partly drawn) [Example 148, 4-(((1R,4S)-bicyclo[2.2.1]heptan-2-yl)amino)-2-((8-(2-oxopyrrolidin-1-yl)-2,3-dihydrobenzo[b][1,4]dioxin-5-yl)amino)-7H-pyrrolo[2,3-d] pyrimidine-5-carbonitrile]	< 50	< 100	< 100
COc1cc(-c2nncn2C)ccc1Nc1nc(NC2CCCC(F)(F)C2)c2c(C#N)c[nH]c2n1 (stereo not drawn) [Example 154, 4-((3,3-difluorocyclohexyl)amino)-2-((2-methoxy-4-(4-methyl-4H-1,2,4-triazol-3-yl)phenyl)amino)-7H-pyrrolo[2,3-d] pyrimidine-5-carbonitrile]	< 50	< 100	< 100
O=C1CCCN1c1ccc(Nc2nc(NC3CCOCC3)c3c(C(F)(F)F)c[nH]c3n2)c2c1OCCO2 [Example 108, 1-(8-((4-((tetrahydro-2H-pyran-4-yl)amino)-5-(trifluoromethyl)-7H-pyrrolo[2,3-d]pyrimidin-2-yl)amino)-2,3-dihydrobenzo[b][1,4]dioxin-5-yl)pyrrolidin-2-one]	< 50	100 to 1000	100 to 1000
COc1cc(-c2cnn(C)c2)ccc1Nc1nc(NC2CCOC(C)(C)C2)c2c(C#N)c[nH]c2n1 (stereo not drawn) [Example 144, 4-((2,2-dimethyltetrahydro-2H-pyran-4-yl)amino)-2-((2-methoxy-4-(1-methyl-1H-pyrazol-4-yl)phenyl)amino)-7H-pyrrolo[2,3-d] pyrimidine-5-carbonitrile]	< 50	< 100	< 100
COC[C@@H](C)Nc1nc(Nc2ccc(-c3cnn(C)c3)c3c2OCCO3)nc2[nH]cc(C#N)c12 [Example 169]	< 50	< 100	< 100
N#Cc1c[nH]c2nc(Nc3ccc(N4CCCCS4(=O)=O)c(F)c3)nc(NC3CCOCC3)c12 [Example 58, 2-((4-(1,1-dioxido-1,2-thiazinan-2-yl)-3-fluorophenyl)amino)-4-((tetrahydro-2H-pyran-4-yl)amino)-7H-pyrrolo[2,3-d] pyrimidine-5-carbonitrile]	< 50	< 100	< 100
COC[C@@H](C)Nc1nc(Nc2ccc(-n3ccnc3C)cc2OC)nc2[nH]cc(C#N)c12 [Example 167, (R)-2-((2-methoxy-4-(2-methyl-1H-imidazol-1-yl)phenyl)amino)-4-((1-methoxypropan-2-yl)amino)-7H-pyrrolo[2,3-d] pyrimidine-5-carbonitrile]	< 50	< 100	< 100
COc1cc(-c2ccnn2C)ccc1Nc1cc(NC2CCCC2)c2c(C#N)c[nH]c2n1 [Example 87, 4-(cyclopentylamino)-6-((2-methoxy-4-(l-methyl-1H-pyrazol-5-yl)phenyl)amino)-1H-pyrrolo[2,3-b] pyridine-3-carbonitrile]	50 to 200	< 100	< 100
Cn1nccc1-c1ccc(Nc2nc(NC3CCCC3)c3cc[nH]c3n2)c2c1OCCO2 [Example 114, N^4-cyclopentyl-N^2-(8-(1-methyl-1H-pyrazol-5-yl)-2,3-dihydrobenzo[b][1,4]dioxin-5-yl)-7H-pyrrolo[2,3-d] pyrimidine-2,4-diamine]	< 50	100 to 1000	100 to 1000
COc1cc(-c2ccnn2C)ccc1Nc1nc(NC2CCCC2)c2c(C(F)(F)F)c[nH]c2n1 [Example 132, N^4-cyclopentyl-N^2-(2-methoxy-4-(1-methyl-1H-pyrazol-5-yl)phenyl)-5-(trifluoromethyl)-7H-pyrrolo[2,3-d] pyrimidine-2,4-diamine]	50 to 200	100 to 1000	100 to 1000
COc1cc(-c2ccnn2C)ccc1Nc1nc(NC2CCCC2)c2c(Cl)c[nH]c2n1 [Example 127, 5-chloro-N^4-cyclopentyl-N^2-(2-methoxy-4-(1-methyl-1H-pyrazol-5-yl)phenyl)-7H-pyrrolo[2,3-d] pyrimidine-2,4-diamine]	50 to 200	< 100	< 100
Cn1nccc1-c1ccc(Nc2nc(C3CC3)c3c(C#N)c[nH]c3n2)c2c1OCCO2 [Example 112, 4-cyclopropyl-2-((8-(1-methyl-1H-pyrazol-5-yl)-2,3-dihydrobenzo[b][1,4]dioxin-5-yl)amino)-7H-pyrrolo[2,3-d] pyrimidine-5-carbonitrile]	< 50	< 100	100 to 1000
C=CC(=O)Nc1cc(-c2ccnn2C)ccc1Nc1nc(NC2CCCC2)c2c(C#N)c[nH]c2n1 [Example 142, N-(2-((5-cyano-4-(cyclopentylamino)-7H-pyrrolo[2,3-d]pyrimidin-2-yl)amino)-5-(1-methyl-1H-pyrazol-5-yl)phenyl)acrylamide]	< 50	100 to 1000	100 to 1000
